Results as given in paper PMC3623729 (Journal of medicinal chemistry, 2013).
“Also recorded” adds a separate entry of the source.

Target: T1, human RXRα (Homo sapiens, UniProt P19793)
T1 sequence (P19793 1-462): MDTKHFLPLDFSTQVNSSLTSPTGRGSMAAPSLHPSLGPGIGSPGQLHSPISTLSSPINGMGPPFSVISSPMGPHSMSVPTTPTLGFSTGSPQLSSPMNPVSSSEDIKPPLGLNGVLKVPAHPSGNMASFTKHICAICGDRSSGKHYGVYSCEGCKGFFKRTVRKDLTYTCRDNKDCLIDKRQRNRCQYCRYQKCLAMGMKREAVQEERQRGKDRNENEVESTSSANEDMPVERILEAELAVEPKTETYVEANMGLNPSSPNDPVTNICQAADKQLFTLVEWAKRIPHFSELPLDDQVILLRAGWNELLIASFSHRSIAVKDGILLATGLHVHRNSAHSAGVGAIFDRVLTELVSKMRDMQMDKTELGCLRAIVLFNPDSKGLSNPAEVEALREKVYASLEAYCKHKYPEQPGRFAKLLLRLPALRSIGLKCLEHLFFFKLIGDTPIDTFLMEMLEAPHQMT
Experiment: RXRE-luciferase reporter gene assay
Type: cell-based
Details: for Max IR: maximum induction ratio observed: compounds tested at variable concentrations

Row | Compound | RXR activity in words (active / inactive) | Max IR: maximum induction ratio observed
1 | C[N+](C)(C)CCCn1c2c(c3ccccc3c1=O)C(=O)c1ccccc1-2.[I-] [Compound 104, 6-(3-(Trimethylammonium)propyl)-5H-indeno[1,2-c]isoquinoline-5,11(6H)-dione Iodide] | inactive | NA (NA: Max IR not determined because IR < 2.)
2 | [N-]=[N+]=NCCCn1c2c(c3ccc([N+](=O)[O-])cc3c1=O)C(=O)c1ccccc1-2 [Compound 134] | inactive | 
3 | COC(=O)c1ccc2c3c(n(CCCN)c(=O)c2c1)-c1ccccc1C3=O.Cl [Compound 73, Methyl 6-(3-Aminopropyl)-5,11-dioxo-6,11-dihydro-5H-indeno[1,2-c]isoquinoline-3-carboxylate Hydrochloride] |  | NA (NA: Max IR not determined because IR < 2.)
4 | O=C1c2ccccc2-c2c1c1ccc(Br)cc1c(=O)n2CCCn1ccnc1 [Compound 91, 3-Bromo-6-(3-(1H-imidazol-1-yl)propyl)-5,11-dioxo-6,11-dihydro-5H-indeno[1,2-c]isoquinoline] | inactive | 
5 | Cn1c2c(c3ccc(/C=C/C(=O)O)cc3c1=O)C(=O)c1ccccc1-2 [Compound 13, (E)-3-(6-Methyl-5,11-dioxo-6,11-dihydro-5H-indeno[1,2-c]isoquinolin-3-yl)acrylic Acid] | inactive | 
6 | CC(=O)NCCCn1c2c(c3ccc([N+](=O)[O-])cc3c1=O)C(=O)c1ccccc1-2 [Compound 143] | detrimental for activity | 
7 | Cn1c2c(c3ccc(C(N)=O)cc3c1=O)C(=O)c1ccccc1-2 [Compound 31, 6-Methyl-5,11-dioxo-6,11-dihydro-5H-indeno[1,2-c]isoquinoline-3-carboxamide] | inactive | 
8 | CN(C)c1ccc2c3c(n(CCCN)c(=O)c2c1)-c1ccccc1C3=O [Compound 149] | inactive | NA (NA: Max IR not determined because IR < 2.)
9 | O=C1c2ccccc2-c2c1c1ccc([N+](=O)[O-])cc1c(=O)n2CCCCO [Compound 120, 6-(4-Hydroxybutyl)-3-nitro-5H-indeno[1,2-c]isoquinoline-5,11(6H)-dione] | inactive | 
10 | O=C1c2ccccc2-c2c1c1ccc(Br)cc1c(=O)n2CCCO [Compound 94, 3-Bromo-5,6-dihydro-6(3-hydroxypropyl)-5,11-dioxo-indeno[1,2-c]isoquinoline] | inactive | 
11 | CC(C)(C)OC(=O)NCCCn1c2c(c3ccc(N)cc3c1=O)C(=O)c1ccccc1-2 [Compound 141] | inactivated | 
12 | N#Cc1ccc2c3c(n(CCCN4CCOCC4)c(=O)c2c1)-c1ccccc1C3=O [Compound 128] | inactive; also recorded: lack of activity | 
13 | O=C(O)CCn1c2c(c3ccccc3c1=O)C(=O)c1ccccc1-2 [Compound 106, 3-(5,11-Dioxo-5H-indeno[1,2-c]isoquinolin-6(11H)-yl)propanoic Acid] | inactive | NA (NA: Max IR not determined because IR < 2.)
14 | COCCCn1c2c(c3ccccc3c1=O)C(=O)c1ccccc1-2 [Compound 108, 6-(3-Methoxypropyl)-5H-indeno[1,2-c]isoquinoline-5,11(6H)-dione] | inactive | 
15 | Cn1c2c(c3ccc(NC(=O)C(=O)O)cc3c1=O)C(=O)c1ccccc1-2 [Compound 45] | inactive | 
16 | NCCCn1c2c(c3ccc([N+](=O)[O-])cc3c1=O)C(=O)c1ccccc1-2 [Compound 135] | detrimental for activity | NA (NA: Max IR not determined because IR < 2.)
17 | O=C1c2ccccc2-c2c1c1ccc([N+](=O)[O-])cc1c(=O)n2CCCCl [Compound 133] | inactive | 
18 | CNCCCn1c2c(c3ccc([N+](=O)[O-])cc3c1=O)C(=O)c1ccccc1-2 [Compound 125] | detrimental for activity | NA (NA: Max IR not determined because IR < 2.)
19 | COC(=O)c1ccc2c3c(n(CCCN4CCOCC4)c(=O)c2c1)-c1ccccc1C3=O [Compound 69, Methyl 6-(3-Morpholinopropyl)-5,11-dioxo-6,11-dihydro-5H-indeno[1,2-c]isoquinoline-3-carboxylate] | inactive; also recorded: lack of activity | 
20 | CNCCCn1c2c(c3ccccc3c1=O)C(=O)c1ccccc1-2 [Compound 105, 6-(3-(Methylamino)propyl)-5H-indeno[1,2-c]isoquinoline-5,11(6H)-dione] | active; also recorded: high activity | 

Row | Compound | RXR activity in words (active / inactive) | Max IR: maximum induction ratio observed
21 | O=C1c2ccccc2-c2c1c1ccccc1c(=O)n2CCCO [Compound 151] | inactive | NA (NA: Max IR not determined because IR < 2.)
22 | NC(=O)CCn1c2c(c3ccccc3c1=O)C(=O)c1ccccc1-2 [Compound 107, 3-(5,11-Dioxo-5H-indeno[1,2-c]isoquinolin-6(11H)-yl)propanamide] | inactive | NA (NA: Max IR not determined because IR < 2.)
23 | Cn1c2c(c3ccc(C(=O)O)cc3c1=O)C(=O)c1ccccc1-2 [Compound 30, 6-Methyl-5,11-dioxo-6,11-dihydro-5H-indeno[1,2-c]isoquinoline-3-carboxylic Acid] | inactive | 
24 | CN(C)CCCn1c2c(c3ccc([N+](=O)[O-])cc3c1=O)C(=O)c1ccccc1-2 [Compound 113, 6-(3-(Dimethylamino)propyl)-3-nitro-5H-indeno[1,2-c]isoquinoline-5,11(6H)-dione] | detrimental for activity | NA (NA: Max IR not determined because IR < 2.)
25 | N#Cc1ccc2c3c(n(CCCn4ccnc4)c(=O)c2c1)-c1ccccc1C3=O [Compound 127] | inactive; also recorded: lack of activity | 
26 | COC(=O)/C=C/c1ccc2c3c(n(CCCN)c(=O)c2c1)-c1ccccc1C3=O.Cl [Compound 87, (E)-Methyl 3-(6-(3-Aminopropyl)-5,11-dioxo-6,11-dihydro-5H-indeno[1,2-c]isoquinolin-3-yl)acrylate Hydrochloride] | lack of activity | NA (NA: Max IR not determined because IR < 2.)
27 | Cn1c2c(c3ccc(C=O)cc3c1=O)C(=O)c1ccccc1-2 [Compound 37, 6-Methyl-5,11-dioxo-6,11-dihydro-5H-indeno[1,2-c]isoquinoline-3-carbaldehyde] | inactive | 
28 | CN(C)CCCn1c2c(c3ccc(C#N)cc3c1=O)C(=O)c1ccccc1-2 [Compound 129] | active | 
29 | CCCCn1c2c(c3ccccc3c1=O)C(=O)c1ccccc1-2 [Compound 109, 6-Butyl-5H-indeno[1,2-c]isoquinoline-5,11(6H)-dione] | inactive | 
30 | CNCCCn1c2c(c3ccc(Br)cc3c1=O)C(=O)c1ccccc1-2 [Compound 95, 3-Bromo-5,6-dihydro-6-(3-N-methylaminopropyl)-5,11-dioxo-indeno[1,2-c]isoquinoline] | active | 
31 | O=C1c2ccccc2-c2c1c1ccc([N+](=O)[O-])cc1c(=O)n2CCCO [Compound 145] | inactive | 
32 | Cn1c2c(c3ccc(C#N)cc3c1=O)C(=O)c1ccccc1-2 [Compound 39, 3-Cyano-5,11-dihydro-6-methyl-5,11-dioxoindeno[1,2-c]isoquinoline] | inactive | 
33 | NCCCn1c2c(c3ccc(NCC(=O)O)cc3c1=O)C(=O)c1ccccc1-2 [Compound 61] | active | 
34 | Cn1c2c(c3ccc(CC(=O)O)cc3c1=O)C(=O)c1ccccc1-2 [Compound 4, 2-(6-Methyl-5,11-dioxo-6,11-dihydro-5H-indeno[1,2-c]isoquinolin-3-yl)acetic Acid] | inactive | 
35 | Cn1c2c(c3ccc(/C=C/C#N)cc3c1=O)C(=O)c1ccccc1-2 [Compound 11, (E)-3-(6-Methyl-5,11-dioxo-6,11-dihydro-5H-indeno[1,2-c]isoquinolin-3-yl)acrylonitrile] | inactive | 
36 | COC(=O)c1ccc2c3c(n(CCCN(C)C)c(=O)c2c1)-c1ccccc1C3=O.Cl [Compound 70, Methyl 6-(3-(Dimethylamino)propyl)-5,11-dioxo-6,11-dihydro-5H-indeno[1,2-c]isoquinoline-3-carboxylate Hydrochloride] | active | 
37 | CC(=O)NCCCn1c2c(c3ccc(N)cc3c1=O)C(=O)c1ccccc1-2 [Compound 144] | significantly reduced the IR | 
38 | COC(=O)CC(=O)Nc1ccc2c3c(n(CCCN)c(=O)c2c1)-c1ccccc1C3=O [Compound 52] | active | 
39 | COC(=O)/C=C/c1ccc2c3c(n(C)c(=O)c2c1)-c1ccccc1C3=O [Compound 12, (E)-Methyl 3-(6-Methyl-5,11-dioxo-6,11-dihydro-5H-indeno[1,2-c]isoquinolin-3-yl)acrylate] | inactive | 
40 | Cl.NCCCn1c2c(c3ccc(C(=O)O)cc3c1=O)C(=O)c1ccccc1-2 [Compound 72, 6-(3-Aminopropyl)-5,11-dioxo-6,11-dihydro-5H-indeno[1,2-c]isoquinoline-3-carboxylic Acid Hydrochloride] | lack of activity | NA (NA: Max IR not determined because IR < 2.)
